Results published in ChEMBL document CHEMBL1157605, “Hybrid molecules from xanomeline and tacrine: enhanced tacrine actions on cholinesterases and muscarinic M1 receptors” (J Med Chem, 2010).
pIC50: −log10 of the molar value. Calls of active or inactive are those of the source. No cut-off for these calls is given here.

Assays:
[1] = target: T1, Muscarinic acetylcholine receptor M1 (Homo sapiens) (UniProt P11229); conditions: CHO
T1 sequence (whole entry): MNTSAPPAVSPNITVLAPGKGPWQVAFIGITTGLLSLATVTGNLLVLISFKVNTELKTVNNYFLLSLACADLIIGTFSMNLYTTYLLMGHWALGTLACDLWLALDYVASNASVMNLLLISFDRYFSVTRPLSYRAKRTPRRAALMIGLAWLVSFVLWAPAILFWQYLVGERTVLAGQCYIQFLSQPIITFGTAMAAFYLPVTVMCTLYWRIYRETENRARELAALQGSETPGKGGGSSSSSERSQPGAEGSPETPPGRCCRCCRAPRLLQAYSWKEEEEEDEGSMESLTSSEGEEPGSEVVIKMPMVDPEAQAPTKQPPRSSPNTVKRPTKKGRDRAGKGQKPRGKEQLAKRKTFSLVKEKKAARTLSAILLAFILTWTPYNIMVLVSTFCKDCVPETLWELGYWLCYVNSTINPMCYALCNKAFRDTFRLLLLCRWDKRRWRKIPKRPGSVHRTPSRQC
Description: Displacement of [3H]NMS from human muscarinic M1 receptor expressed in CHO cells in ternary complex by EATCM analysis

Cholinesterase = Cholinesterase (Equus caballus, UniProt P81908)
Description: Inhibition of BChE from equine serum by Ellman's method

[2] = target: T1, Muscarinic acetylcholine receptor M1 (Homo sapiens); conditions: CHO; remark: listed apart in the source
Description: Displacement of [3H]NMS from human muscarinic M1 receptor expressed in CHO cells in binary complex by EATCM analysis

Acetylcholinesterase = Acetylcholinesterase (Electrophorus electricus, UniProt O42275)
Description: Inhibition of electric eel AChE by Ellman's method

Rattus norvegicus [3] = experiment: Antiamnesic activity against scopolamine-induced memory loss in Wistar rat assessed as increase in total exploration time at 2 umol/100 g body weight, ip by eight-arm radial maze cognition test; assay type: functional, organism-based
Rattus norvegicus [4] = experiment: Antiamnesic activity in Wistar rat assessed as increase in total exploration time at 2 umol/100 g body weight, ip by eight-arm radial maze cognition test; assay type: functional, organism-based

Chain of Acetylcholinesterase (O42275 whole entry): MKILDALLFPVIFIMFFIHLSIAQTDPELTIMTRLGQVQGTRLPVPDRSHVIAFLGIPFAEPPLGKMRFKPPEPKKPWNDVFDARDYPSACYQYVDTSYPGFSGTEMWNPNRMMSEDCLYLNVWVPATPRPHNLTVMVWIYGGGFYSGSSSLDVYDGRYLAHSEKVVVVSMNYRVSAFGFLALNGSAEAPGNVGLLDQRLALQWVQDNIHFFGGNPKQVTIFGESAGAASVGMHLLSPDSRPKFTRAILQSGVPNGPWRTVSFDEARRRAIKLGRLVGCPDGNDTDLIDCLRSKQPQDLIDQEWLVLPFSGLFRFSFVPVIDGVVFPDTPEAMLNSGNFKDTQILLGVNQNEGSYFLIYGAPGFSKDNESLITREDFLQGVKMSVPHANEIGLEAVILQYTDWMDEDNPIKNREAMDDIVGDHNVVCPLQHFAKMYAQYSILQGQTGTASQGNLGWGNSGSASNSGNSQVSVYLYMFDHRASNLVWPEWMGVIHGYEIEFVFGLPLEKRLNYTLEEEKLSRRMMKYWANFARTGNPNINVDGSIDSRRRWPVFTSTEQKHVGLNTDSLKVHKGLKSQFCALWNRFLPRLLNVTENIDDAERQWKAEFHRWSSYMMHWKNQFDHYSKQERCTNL
Chain of Cholinesterase (P81908 whole entry): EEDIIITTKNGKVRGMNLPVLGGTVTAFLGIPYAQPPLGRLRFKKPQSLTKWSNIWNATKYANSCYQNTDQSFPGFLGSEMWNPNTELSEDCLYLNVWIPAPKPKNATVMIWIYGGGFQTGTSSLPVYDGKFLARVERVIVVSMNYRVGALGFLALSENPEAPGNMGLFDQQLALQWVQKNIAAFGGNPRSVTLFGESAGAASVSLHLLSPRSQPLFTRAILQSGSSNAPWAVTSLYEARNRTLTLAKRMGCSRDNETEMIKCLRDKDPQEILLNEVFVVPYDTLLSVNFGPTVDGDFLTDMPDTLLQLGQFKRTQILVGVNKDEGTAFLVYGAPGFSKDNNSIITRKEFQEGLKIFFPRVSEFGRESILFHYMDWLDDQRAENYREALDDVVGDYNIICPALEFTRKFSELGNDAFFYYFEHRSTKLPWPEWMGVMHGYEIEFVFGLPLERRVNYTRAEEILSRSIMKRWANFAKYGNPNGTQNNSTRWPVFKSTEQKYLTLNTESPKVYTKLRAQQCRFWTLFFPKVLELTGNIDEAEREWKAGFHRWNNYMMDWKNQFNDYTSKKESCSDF

CN1CCC=C(c2nsnc2OCCCOCCC(=O)NCCCCCCCCNc2c3c(nc4ccccc24)CCCC3)C1
logKd [1]: 6.7 | pIC50 (Cholinesterase): 7.88 | logKd [2]: 7.57 | pIC50 (Acetylcholinesterase): 7.64

CN1CCC=C(c2nsnc2OCCCOCCCCC(=O)NCCCCNc2c3c(nc4ccccc24)CCCC3)C1
pIC50 (Cholinesterase): 8.23 | pIC50 (Acetylcholinesterase): 8.06

CN1CCC=C(c2nsnc2OCCCOCCC(=O)NCCCNc2c3c(nc4ccccc24)CCCC3)C1
logKd [1]: 8.03 | pIC50 (Cholinesterase): 7.97 | logKd [2]: 8.09 | pIC50 (Acetylcholinesterase): 7.87

CN1CCC=C(c2nsnc2OCCCCNCCCCCCCCNc2c3c(nc4ccccc24)CCCC3)C1
pIC50 (Cholinesterase): 7.87 | pIC50 (Acetylcholinesterase): 7.58

CN1CCC=C(c2nsnc2OCCCOCCCC(=O)NCCCNc2c3c(nc4ccccc24)CCCC3)C1
pIC50 (Cholinesterase): 8.00 | pIC50 (Acetylcholinesterase): 7.97

CN1CCC=C(c2nsnc2OCCCOCCCC(=O)NCCCCCCCCNc2c3c(nc4ccccc24)CCCC3)C1
logKd [1]: 7.06 | pIC50 (Cholinesterase): 8.30 | logKd [2]: 7.38 | pIC50 (Acetylcholinesterase): 8.19

CN1CCC=C(c2nsnc2OCCCOCCCCC(=O)NCCCCCCCCNc2c3c(nc4ccccc24)CCCC3)C1
pIC50 (Cholinesterase): 8.23 | pIC50 (Acetylcholinesterase): 8.21

CN1CCC=C(c2nsnc2OCCCOCCC(=O)NCCCCNc2c3c(nc4ccccc24)CCCC3)C1
pIC50 (Cholinesterase): 8.04 | pIC50 (Acetylcholinesterase): 7.97

CN1CCC=C(c2nsnc2OCCCCNCCCCNc2c3c(nc4ccccc24)CCCC3)C1
logKd [1]: 7.49 | pIC50 (Cholinesterase): 7.79 | logKd [2]: 8.13 | pIC50 (Acetylcholinesterase): 7.36

CCCCCCOc1nsnc1C1=CCCN(C)C1
logKd [1]: 4.94 | logKd [2]: 7.4

CN1CCC=C(c2nsnc2OCCCOCCCCC(=O)NCCCNc2c3c(nc4ccccc24)CCCC3)C1
pIC50 (Cholinesterase): 8.05 | pIC50 (Acetylcholinesterase): 7.99

CN1CCC=C(c2nsnc2OCCCOCC(=O)NCCCNc2c3c(nc4ccccc24)CCCC3)C1
logKd [1]: 7.87 | pIC50 (Cholinesterase): 8.01 | logKd [2]: 8.1 | pIC50 (Acetylcholinesterase): 7.83

CN1CCC=C(c2nsnc2OCCCCNCCCNc2c3c(nc4ccccc24)CCCC3)C1
pIC50 (Cholinesterase): 7.54 | pIC50 (Acetylcholinesterase): 7.20

CN1CCC=C(c2nsnc2OCCCCNCCCCCNc2c3c(nc4ccccc24)CCCC3)C1
pIC50 (Cholinesterase): 7.91 | pIC50 (Acetylcholinesterase): 7.66

CN1CCC=C(c2nsnc2OCCCOCCCC(=O)NCCCCNc2c3c(nc4ccccc24)CCCC3)C1
pIC50 (Cholinesterase): 8.17

CN1CCC=C(c2nsnc2OCCCOCC(=O)NCCCCCCCCNc2c3c(nc4ccccc24)CCCC3)C1
logKd [1]: 6.35 | Activity (Rattus norvegicus [3]): Active | pIC50 (Cholinesterase): 8.29 | logKd [2]: 6.88 | Activity (Rattus norvegicus [4]): Active | pIC50 (Acetylcholinesterase): 8.18

CN1CCC=C(c2nsnc2OCCCOCC(=O)NCCCCNc2c3c(nc4ccccc24)CCCC3)C1
pIC50 (Cholinesterase): 7.97 | pIC50 (Acetylcholinesterase): 7.92
